Assay results reported in US11324803B2, “Methods and compositions for treatment of Gaucher Disease via modulation of C5a receptor” (Children's Hospital Medical Center, priority 2015, dated 2022).

Assays:
GCase = target: T1, GCase (Mus musculus, UniProt P17439); assay: CBE-induced GCase deficiency (pharmacologically-induced Gaucher disease) in mice; format: in vivo
T1 construct: endogenous in cells; host or cells: WT, C5aR1-/-, C5aR2-/-, Fcer1g-/- and Fcgr2b-/- mice, in vivo
T1 sequence (P17439 20-515): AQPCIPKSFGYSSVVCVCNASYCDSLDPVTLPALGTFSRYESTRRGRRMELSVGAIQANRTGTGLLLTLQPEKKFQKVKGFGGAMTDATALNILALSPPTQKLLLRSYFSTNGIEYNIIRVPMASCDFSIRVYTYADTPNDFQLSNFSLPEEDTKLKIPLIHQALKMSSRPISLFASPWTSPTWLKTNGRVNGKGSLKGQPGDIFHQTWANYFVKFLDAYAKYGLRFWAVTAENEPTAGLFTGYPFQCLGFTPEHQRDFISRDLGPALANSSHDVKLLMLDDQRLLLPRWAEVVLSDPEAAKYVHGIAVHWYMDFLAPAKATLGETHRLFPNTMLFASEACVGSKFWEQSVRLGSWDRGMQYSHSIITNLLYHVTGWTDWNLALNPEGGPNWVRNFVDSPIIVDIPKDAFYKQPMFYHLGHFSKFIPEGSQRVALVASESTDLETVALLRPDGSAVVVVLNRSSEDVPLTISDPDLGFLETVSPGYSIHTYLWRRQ
Excerpt: Sera from human patients with Gaucher disease (n=10) and healthy volunteers (n=15) were from the freezer and de-identified. Human patients with Gaucher disease were diagnosed at Cincinnati Children's Hospital Medical Center (CCHMC). […] The study was approved by the ethics committee at CCHMC. In vivo C5aR1 deficiency or blockade in 9V/null mice and in a CBE-induced mouse model of Gaucher disease. To assess the impact of genetic or pharmacological targeting of C5aR1 on the inflammatory response in Gaucher disease, WT (n=10) and C5aR1^−/− mice (n=10) were treated with conduritol B epoxide (CBE), which is an irreversible inhibitor of acid β-glucosidase^24. More specifically, both mouse strains were injected intraperitoneally (i.p.) with 100 mg CBE/kg body weight or vehicle (PBS)/day for up to 60 days, which was the termination point of these experiments. After 60 days of the indicated treatment with CBE, immune cells (MΦs, DCs, and T cells) were purified from lung of these mouse strains and used for measurement of GC, costimulatory molecules, and several of the pro-inflammatory cytokines. In additional experiments, WT (n=15) or 9V/null mice (n=15) were injected with 100 μl of the C5aR antagonist A8^Δ71-73 (i.p. 0.5 mg/kg) or vehicle (100 μl, PBS) on five consecutive days. Five days after the final C5aRA treatment, liver, spleen and lung were separated and measured for GC accumulation. Further, DCs and CD4^+ T cells were purified from the lung of the indicated mouse strains and measured for costimulatory molecule expression and the production of pro-inflammatory cytokines. Preparation of tissue cells. Liver, spleen, lung and BM were harvested aseptically. Single cell suspensions from liver and lung were obtained from minced pieces that were treated with Liberase Cl (0.5 mg/mL) and DNase (0.5 mg/mL) in RPMI (45 min, 37° C.). Single cell suspensions from spleen were obtained by grinding and then filtration through a 70-micron cell strainer. […] For BM cells, femurs, tibias and humeri were flushed with sterile phosphate buffered saline (PBS), followed by RBC lysis (155 mM NH4Cl, 10 mM NaHCO3, 0.1 mM EDTA), passage through a strainer. Cells were then pelleted by centrifugation at 350×g. Viable cells were counted using a Neubauer chamber and trypan blue exclusion. DCs, MΦs, and CD4^+ T lymphocytes were purified from single cell suspensions of liver, spleen, and lung using CD11c, CD11b, and CD4 (L3T4) microbeads according to the manufacturer's protocol. The purity of the cells was ˜90%-95%.
To determine levels of IgG antibodies to GC or GS in mice and human Gaucher patients, 10 μg of GC or GS were dissolved in 1 ml of methanol and water to a final concentration of 10 μg/ml. One hundred microliters of this GC solution (1 μg/well) were used to coat a 96 well ELISA plate. In case of GS, plates were first filled with 300 µl of poly L lysine solution (0.1 mg/ml). After 10 minutes, excess solution was removed and plates were thoroughly rinsed with sterile water and allowed to dry for several hours. Such plates were then coated with 100 μl of indicated GS solution (1 μg/well). Both of these GC and GS coated plates were kept overnight at room temperature followed by three washings with PBS containing 1% Tween-20 (PBST). Test sera (100 μl; 1:100) isolated from WT (n=15) and 9V/null mice (n=15), CBE-treated (n=10) and untreated WT mice (n=10), as well as healthy humans (n=15) and untreated Gaucher disease patients (n=10), and control antibodies to GC were loaded into the lipid-coated wells followed by incubation for 1.5 hours at RT. […]

C5a receptor 1 = target: T2, C5a receptor 1 (Rattus norvegicus, UniProt P97520); conditions: introduced orally; cited from earlier work
T2 construct: host or cells: rats, in vivo
T2 sequence (P97520 1-352): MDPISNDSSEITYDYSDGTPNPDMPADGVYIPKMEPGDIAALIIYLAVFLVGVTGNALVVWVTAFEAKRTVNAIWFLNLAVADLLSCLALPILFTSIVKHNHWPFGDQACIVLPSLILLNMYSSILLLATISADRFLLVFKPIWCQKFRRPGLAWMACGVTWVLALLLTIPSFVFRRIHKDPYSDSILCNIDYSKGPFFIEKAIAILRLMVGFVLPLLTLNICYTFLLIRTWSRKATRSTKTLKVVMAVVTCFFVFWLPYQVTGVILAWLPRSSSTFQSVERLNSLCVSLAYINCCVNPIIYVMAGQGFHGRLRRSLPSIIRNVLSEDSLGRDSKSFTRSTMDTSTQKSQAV

DCs and CD4+ T cells [1] = assay: C5a stimulation of DCs and CD4+ T cells: co-stimulatory molecule expression; format: cell-based, mouse; conditions: WT and 9V/null cells, C5a 0, 8, 16, 32 nM, 24 h
Experimental: (§1) To assess the GC-induced C5a influence on alteration in costimulatory molecules, DCs and CD4^+ T cells purified from lung of 9V/null and background matched WT mice (n=15, each group) were stimulated ex vivo in the presence and absence of different concentration of C5a (0,8,16, and 32 nM) for 24 hours at 37° C. DCs and CD4^+ T cells were purified liver, spleen, and lung of CBE-induced chemical model of Gaucher disease in C5aR1^−/− (n=10) and background-matched WT mice (n=10). These DCs were used to perform FACS staining with antibodies to CD40, CD80, and CD86, whereas CD4^+T cells were used to perform FACS staining with antibodies to CD40L and CD69. To assess the GC induced C5a impact on cytokines and chemokines production, DCs and CD4^+T cells (1:2.5 ratio) purified from lung of 9V/null (n=15) and background-matched WT mice (n=15) were co cultured in the presence and absence of C5a (32 nM) for 48 hours in complete medium. In additional experiments, indicated ratios ([…]) of DCs and CD4^+T cells purified from lung of CBE treated and untreated WT and C5aR1^−/− mice (n=10/each group) were co-cultured for 48 hrs in complete medium. Supernatant of these experiments were used to measure […], TNF-α, IL-1β, IL-6, IL-12p40, IL-12p70, IL-23, IL-17A/F and IL-23 by ELISA. […]

DCs and CD4+ T cells [2] = assay: DC / CD4+ T cell co-culture with C5a: cytokine production by ELISA; format: cell-based, mouse; conditions: cells from 9V/null mice vs WT, C5a 32 nM, 48 h co-culture
Experimental: as §1

[3] = WT mice treated for 30 days with CBE vs PBS

O[C@H]1[C@H](O)[C@@H](O)[C@@H]2O[C@@H]2[C@@H]1O (racemic) [CBE, conduritol B epoxide]
survival after daily injections of CBE for 60 days (GCase; C5aR1−/− mice, 100 mg CBE/kg/day i.p.): survived
time of death under daily CBE injections (GCase; C5aR2−/− mice, 100 mg CBE/kg/day i.p.): 29 to 35 days
time of death under daily CBE injections (GCase; Fcer1g−/− mice, 100 mg CBE/kg/day i.p.): 29 to 36 days
time of death under daily CBE injections (GCase; Fcgr2b−/− mice, 100 mg CBE/kg/day i.p.): 29 to 36 days
serum levels of C5a (GCase; [3]): elevated
serum levels of IgG2a and IgG2b antibodies to GC (GCase; [3]): significantly elevated
time of death under daily CBE injections (GCase; WT mice, 100 mg CBE/kg/day i.p.): 29 to 35 days

AcF-[OP(D-Cha)WR]
effect in rat models of acute inflammation (C5a receptor 1): beneficial

HC-[OP(D-Cha)WR]
effect in rat models of acute inflammation (C5a receptor 1): beneficial

PMX53
effect in rat models of acute inflammation (C5a receptor 1): beneficial

B1: C5a: small peptide of the complement anaphylatoxin family, cleaved from C5 (protein, UniProt P01031 678-751, looked up)
C5a anaphylatoxin: TLQKKIEEIAAKYKHSVVKKCCYDGACVNNDETCEQRAARISLGPRCIKAFTECCVVASQLRANISHKDMQLGR
modifications: C5a anaphylatoxin
notes: small peptide of the complement anaphylatoxin family, cleaved from C5
expression levels of CD40, CD80, CD86 and CD40L and CD69 (DCs and CD4+ T cells [1]): increased
production of IFN-γ, TNF-α, IL-1β, IL-6, and IL-17 (DCs and CD4+ T cells [2]): dramatically increased
